Data on two molecules can be found in US11225504B2, “Functional polypeptide and its application thereof in preparing medicament for preventing and treating pulmonary fibrosis” (Guangdong Medical University, priority 2017, dated 2022).

SMILES strings stand for the structures. Residues, ends and D or L forms follow the SMILES beside them.

Data set [1] relates to human normal lung epithelial cell BEAS-2B. The experiment in a line: Growth effects on human normal lung epithelial cell BEAS-2B (FIG. 4). The class given is cell-based.
The subject of data set [2] is bleomycin-induced pulmonary fibrosis. Kind of data set: Prevention and treatment of pulmonary fibrosis IPF experiment (bleomycin-induced, mice). The class given is in vivo, C57 mice. The method, then: (1) Animals: SPF grade C57 mice, 22 g±2 g, 60 mice, females. The mice was divided into the following groups using the random digits table: the control group, the model group, the pirfenidone group (50 mg/kg), the EZY-1 polypeptide low dose group (0.25 mg/kg), the EZY-1 polypeptide medium dose group (0.5 mg/kg), the EZY-1 polypeptide high dose group (1.0 mg/kg), 10 animals per group. (3) After the mice were anesthetized by intraperitoneal injection of 1% sodium pentobarbital at a dose of 50 mg/kg, they are fixed to the operation console on their back. Their tongues were pulled out with tweezers to expose the trachea, and 5 mg/kg Bleomycin was slowly injected under a cold light source magnifying glass. Immediately after the injection, the operation console was erected and rotated for 3 minutes to evenly distribute the drug solution in the lungs. The control group was injected with an equal volume of isotonic saline in the same way as the previous method. After 10 days, the mice were intra-gastrically administered with 0.1 ml/10 g with drugs. The control group and the model group were intra-gastrically administered with an equal volume of isotonic saline. The other groups were intra-gastrically administered with the corresponding dose of the drug for 35 days, once a day. After 35 days of drug administration, the mice were anesthetized and sacrificed, and the two intact lung tissues were isolated and weighed. The same part of the right upper lobe was taken, fixed with 4% paraformaldehyde for 48 hours, and paraffin sections were generated for Hematoxylin-Eosin (HE) staining for histopathological observations. The same part of the […] was taken for the measurement of HYP content in the lung tissue. Plasma was collected for the measurement of T-SOD, MDA, and GSH-PX levels. Statistical analysis was performed using SPSS 17.0 software. Measurement data were expressed as mean±standard deviation (x±s). Comparison of the means in multiple samples was performed by one-way ANOVA. Comparison between groups was performed by t test, with P≤0.05 indicating statistically significant differences.

Where [3] appears, read: 50 mg/kg intragastric once a day for 35 days, bleomycin mice, mean ± SD.

On to `CC[C@H](C)[C@H](NC(=O)CNC(=O)[C@H](CC(N)=O)NC(=O)[C@H](Cc1ccc(O)cc1)NC(=O)[C@@H](NC(=O)[C@@H](NC(=O)[C@H](CS)NC(=O)[C@H](Cc1ccccc1)NC(=O)[C@H](CS)NC(=O)[C@H](C)NC(=O)CNC(=O)[C@@H](NC(=O)[C@@H](N)CCCNC(=N)N)[C@@H](C)O)C(C)C)[C@@H](C)CC)C(=O)N[C@@H](CC(C)C)C(=O)N[C@@H](Cc1ccc(O)cc1)C(=O)N1CCC[C@H]1C(=O)O` [EZY-1 polypeptide, RTGACFCVIYNGILYP] (H-RTGACFCVIYNGILYP-OH), for which the “toxicity to normal cells (growth of BEAS-2B)” value in data set [1] is “low toxicity to normal cells”.
For `Cc1ccc(=O)n(-c2ccccc2)c1` [pirfenidone], in data set [2] (setting [3]), the “GSH-PX (plasma)” value was 672.92 ± 98.72 active unit, the “HYP (lung tissue)” value was 48.36 ± 5.01 μg/g lung tissues Wet weight, the “MDA (plasma)” value worked out at 6.52 ± 0.71 nmal/mL and the “T-SOD (plasma)” value came out at 156.05 ± 17.32 U/mL. The “pathological changes of lung tissue (HE staining, FIG. 5)” value in data set [2] (EZY-1 low, medium and high dose (0.25, 0.5, 1.0 mg/kg), pirfenidone 50 mg/kg, 35 days) was “reduce alveolar structural damage, reduce collagen fiber production, and inhibit the inflammatory cell infiltration”.
